Measured values: ChEMBL document CHEMBL5723582, “Data for DCP probe T-10430” (2024)

Assays:
Conditions in all cases: Compound concentration 1.0 uM
[1] = molecular target: Type-1 angiotensin II receptor (Homo sapiens) (UniProt P30556); experiment: RLU of AGTR1 at 1.0 µM in the […] PRESTO-Tango GPCRome screen
[2] = molecular target: Urotensin-2 receptor (Homo sapiens) (UniProt Q9UKP6); experiment: RLU of UTS2R at 1.0 µM in the […] PRESTO-Tango GPCRome screen
[3] = molecular target: C-C chemokine receptor type 4 (Homo sapiens) (UniProt P51679); experiment: RLU of CCR4 at 1.0 µM in the […] PRESTO-Tango GPCRome screen
C-C chemokine receptor type 4 (Homo sapiens), sequence (P51679 whole entry): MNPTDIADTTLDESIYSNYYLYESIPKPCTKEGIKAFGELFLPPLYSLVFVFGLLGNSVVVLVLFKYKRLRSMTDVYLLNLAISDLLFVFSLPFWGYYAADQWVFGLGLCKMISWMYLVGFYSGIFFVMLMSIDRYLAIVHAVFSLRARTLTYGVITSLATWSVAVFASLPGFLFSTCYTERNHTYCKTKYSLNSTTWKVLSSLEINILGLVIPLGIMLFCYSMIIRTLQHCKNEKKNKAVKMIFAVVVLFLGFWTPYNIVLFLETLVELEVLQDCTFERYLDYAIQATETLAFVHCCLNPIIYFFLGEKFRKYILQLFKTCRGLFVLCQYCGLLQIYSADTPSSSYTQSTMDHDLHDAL

[4] = molecular target: Cysteinyl leukotriene receptor 1 (Homo sapiens) (UniProt Q9Y271); experiment: RLU of CYSLTR1 at 1.0 µM in the […] PRESTO-Tango GPCRome screen
Cysteinyl leukotriene receptor 1 (Homo sapiens), sequence (Q9Y271 whole entry): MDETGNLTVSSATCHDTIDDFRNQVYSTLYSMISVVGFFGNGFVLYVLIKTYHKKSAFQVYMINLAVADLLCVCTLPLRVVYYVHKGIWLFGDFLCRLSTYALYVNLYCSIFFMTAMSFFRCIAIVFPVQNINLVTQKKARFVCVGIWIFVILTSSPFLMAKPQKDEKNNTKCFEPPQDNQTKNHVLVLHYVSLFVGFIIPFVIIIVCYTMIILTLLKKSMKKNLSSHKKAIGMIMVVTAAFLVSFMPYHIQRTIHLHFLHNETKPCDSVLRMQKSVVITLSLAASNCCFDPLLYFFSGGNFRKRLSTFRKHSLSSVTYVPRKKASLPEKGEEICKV

[5] = molecular target: 5-hydroxytryptamine receptor 5A (Homo sapiens) (UniProt P47898); experiment: RLU of HTR5 at 1.0 µM in the […] PRESTO-Tango GPCRome screen
5-hydroxytryptamine receptor 5A (Homo sapiens), sequence (P47898 whole entry): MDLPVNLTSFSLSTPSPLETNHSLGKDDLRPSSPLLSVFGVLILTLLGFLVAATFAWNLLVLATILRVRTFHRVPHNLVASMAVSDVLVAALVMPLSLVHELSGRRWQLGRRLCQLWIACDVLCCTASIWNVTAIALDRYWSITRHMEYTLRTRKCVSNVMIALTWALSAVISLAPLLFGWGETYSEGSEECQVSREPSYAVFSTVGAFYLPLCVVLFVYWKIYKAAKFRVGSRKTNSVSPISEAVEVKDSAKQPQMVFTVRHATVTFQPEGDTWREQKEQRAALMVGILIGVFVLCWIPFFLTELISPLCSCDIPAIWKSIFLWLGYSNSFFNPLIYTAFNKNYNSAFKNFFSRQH

[6] = molecular target: Adhesion G-protein coupled receptor F1 (Homo sapiens) (UniProt Q5T601); experiment: RLU of GPR110 at 1.0 µM in the […] PRESTO-Tango GPCRome screen
Adhesion G-protein coupled receptor F1 (Homo sapiens), sequence (Q5T601 20-566 limits assumed): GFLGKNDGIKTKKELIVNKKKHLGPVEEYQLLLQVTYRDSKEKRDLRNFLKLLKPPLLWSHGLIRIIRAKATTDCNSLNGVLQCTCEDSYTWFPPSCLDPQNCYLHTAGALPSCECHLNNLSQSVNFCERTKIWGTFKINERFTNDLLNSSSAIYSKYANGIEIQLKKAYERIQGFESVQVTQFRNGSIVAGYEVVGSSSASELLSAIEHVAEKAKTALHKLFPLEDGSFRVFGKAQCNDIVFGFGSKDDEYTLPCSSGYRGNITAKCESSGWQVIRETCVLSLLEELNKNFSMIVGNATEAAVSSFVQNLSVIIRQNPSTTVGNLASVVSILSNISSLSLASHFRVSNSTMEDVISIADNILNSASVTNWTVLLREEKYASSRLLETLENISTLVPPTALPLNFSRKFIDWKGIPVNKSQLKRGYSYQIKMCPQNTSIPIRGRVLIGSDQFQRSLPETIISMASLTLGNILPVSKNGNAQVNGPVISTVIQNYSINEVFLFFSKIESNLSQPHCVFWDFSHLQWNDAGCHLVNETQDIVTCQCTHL
Adhesion G-protein coupled receptor F1 (Homo sapiens), sequence (Q5T601 567-910 limits assumed): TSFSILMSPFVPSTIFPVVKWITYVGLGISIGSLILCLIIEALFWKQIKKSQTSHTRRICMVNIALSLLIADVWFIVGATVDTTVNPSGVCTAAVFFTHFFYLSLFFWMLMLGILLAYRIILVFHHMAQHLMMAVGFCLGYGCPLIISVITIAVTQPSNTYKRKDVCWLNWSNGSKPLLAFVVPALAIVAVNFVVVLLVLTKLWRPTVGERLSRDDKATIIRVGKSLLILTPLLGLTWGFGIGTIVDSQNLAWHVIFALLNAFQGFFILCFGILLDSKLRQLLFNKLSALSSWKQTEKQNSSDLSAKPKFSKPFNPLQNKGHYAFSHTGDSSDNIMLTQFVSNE

[7] = molecular target: Orexin receptor type 1 (Homo sapiens) (UniProt O43613); experiment: RLU of HCTR1 at 1.0 µM in the Aequorin PRESTO-Tango GPCRome screen
Orexin receptor type 1 (Homo sapiens), sequence (O43613 whole entry, looked up): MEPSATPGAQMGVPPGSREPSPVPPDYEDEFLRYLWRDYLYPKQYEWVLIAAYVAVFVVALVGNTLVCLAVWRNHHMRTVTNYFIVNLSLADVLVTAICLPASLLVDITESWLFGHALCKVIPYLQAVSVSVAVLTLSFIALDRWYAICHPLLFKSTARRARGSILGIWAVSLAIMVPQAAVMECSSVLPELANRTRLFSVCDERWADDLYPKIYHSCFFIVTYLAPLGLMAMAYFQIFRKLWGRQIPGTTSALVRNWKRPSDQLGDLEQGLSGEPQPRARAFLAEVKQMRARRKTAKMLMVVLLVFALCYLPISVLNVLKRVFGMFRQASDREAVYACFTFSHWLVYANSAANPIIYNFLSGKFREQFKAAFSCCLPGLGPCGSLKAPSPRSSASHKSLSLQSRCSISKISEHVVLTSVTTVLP

[8] = molecular target: 2-oxoglutarate receptor 1 (Homo sapiens) (UniProt Q96P68); experiment: RLU of OXGR1 at 1.0 µM in the […] PRESTO-Tango GPCRome screen
2-oxoglutarate receptor 1 (Homo sapiens), sequence (Q96P68 whole entry, looked up): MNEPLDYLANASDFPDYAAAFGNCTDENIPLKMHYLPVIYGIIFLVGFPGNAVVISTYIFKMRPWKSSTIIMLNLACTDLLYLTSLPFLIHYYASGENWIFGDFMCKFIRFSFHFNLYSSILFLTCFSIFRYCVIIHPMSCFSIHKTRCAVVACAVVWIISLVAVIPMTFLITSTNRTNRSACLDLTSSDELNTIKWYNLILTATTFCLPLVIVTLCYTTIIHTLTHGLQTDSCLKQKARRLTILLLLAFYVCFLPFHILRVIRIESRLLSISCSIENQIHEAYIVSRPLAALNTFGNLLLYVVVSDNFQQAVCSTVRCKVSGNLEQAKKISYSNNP

[9] = molecular target: G-protein coupled receptor 20 (Homo sapiens) (UniProt Q99678); experiment: RLU of GPR20 at 1.0 µM in the […] PRESTO-Tango GPCRome screen
[10] = molecular target: G-protein coupled receptor 39 (Homo sapiens) (UniProt O43194); experiment: RLU of GPR39 at 1.0 µM in the […] PRESTO-Tango GPCRome screen
[11] = molecular target: G protein-coupled receptor 88 (Homo sapiens) (UniProt Q9GZN0); experiment: RLU of GPR88 at 1.0 µM in the […] PRESTO-Tango GPCRome screen
[12] = molecular target: P2Y purinoceptor 11 (Homo sapiens) (UniProt Q96G91); experiment: RLU of P2RY11 at 1.0 µM in the […] PRESTO-Tango GPCRome screen
[13] = molecular target: Opsin-3 (Homo sapiens) (UniProt Q9H1Y3); experiment: RLU of OPN3 at 1.0 µM in the […] PRESTO-Tango GPCRome screen
[14] = molecular target: Vasoactive intestinal polypeptide receptor 2 (Homo sapiens) (UniProt P41587); experiment: RLU of VIPR2 at 1.0 µM in the […] PRESTO-Tango GPCRome screen
Vasoactive intestinal polypeptide receptor 2 (Homo sapiens), sequence (P41587 whole entry): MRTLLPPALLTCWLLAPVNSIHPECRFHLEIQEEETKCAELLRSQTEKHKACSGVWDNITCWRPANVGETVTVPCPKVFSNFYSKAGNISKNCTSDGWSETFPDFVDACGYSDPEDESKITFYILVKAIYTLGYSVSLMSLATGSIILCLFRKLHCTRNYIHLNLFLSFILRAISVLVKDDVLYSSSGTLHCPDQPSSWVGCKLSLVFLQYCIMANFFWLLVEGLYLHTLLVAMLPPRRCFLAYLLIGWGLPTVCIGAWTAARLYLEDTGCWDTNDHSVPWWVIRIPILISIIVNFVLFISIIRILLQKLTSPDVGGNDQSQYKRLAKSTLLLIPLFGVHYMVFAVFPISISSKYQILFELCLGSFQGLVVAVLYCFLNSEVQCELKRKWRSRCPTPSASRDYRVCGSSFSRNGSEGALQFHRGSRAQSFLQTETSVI

[15] = molecular target: D(1B) dopamine receptor (Homo sapiens) (UniProt P21918); experiment: RLU of DRD5 at 1.0 µM in the […] PRESTO-Tango GPCRome screen
[16] = molecular target: Metabotropic glycine receptor (Homo sapiens) (UniProt Q5T848); experiment: RLU of GPR158 at 1.0 µM in the […] PRESTO-Tango GPCRome screen
[17] = molecular target: Adhesion G-protein coupled receptor G6 (Homo sapiens) (UniProt Q86SQ4); experiment: RLU of GPR126 at 1.0 µM in the […] PRESTO-Tango GPCRome screen
[18] = molecular target: G-protein coupled receptor 135 (Homo sapiens) (UniProt Q8IZ08); experiment: RLU of GPR135 at 1.0 µM in the […] PRESTO-Tango GPCRome screen
[19] = molecular target: D(3) dopamine receptor (Homo sapiens) (UniProt P35462); experiment: RLU of DRD3 at 1.0 µM in the […] PRESTO-Tango GPCRome screen
[20] = molecular target: Pituitary adenylate cyclase-activating polypeptide type I receptor (Homo sapiens) (UniProt P41586); experiment: RLU of ADCYAP1R1 at 1.0 µM in the […] PRESTO-Tango GPCRome screen
[21] = molecular target: Galanin receptor type 2 (Homo sapiens) (UniProt O43603); experiment: RLU of GAL2 at 1.0 µM in the […] PRESTO-Tango GPCRome screen
[22] = molecular target: Uracil nucleotide/cysteinyl leukotriene receptor (Homo sapiens) (UniProt Q13304); experiment: RLU of GPR17 at 1.0 µM in the […] PRESTO-Tango GPCRome screen
[23] = molecular target: 5-hydroxytryptamine receptor 1F (Homo sapiens) (UniProt P30939); experiment: RLU of HTR1F at 1.0 µM in the […] PRESTO-Tango GPCRome screen
[24] = molecular target: Adhesion G protein-coupled receptor E5 (Homo sapiens) (UniProt P48960); experiment: RLU of CD97 at 1.0 µM in the […] PRESTO-Tango GPCRome screen
[25] = molecular target: C5a anaphylatoxin chemotactic receptor 2 (Homo sapiens) (UniProt Q9P296); experiment: RLU of GPR77 at 1.0 µM in the […] PRESTO-Tango GPCRome screen
C5a anaphylatoxin chemotactic receptor 2 (Homo sapiens), sequence (Q9P296 whole entry): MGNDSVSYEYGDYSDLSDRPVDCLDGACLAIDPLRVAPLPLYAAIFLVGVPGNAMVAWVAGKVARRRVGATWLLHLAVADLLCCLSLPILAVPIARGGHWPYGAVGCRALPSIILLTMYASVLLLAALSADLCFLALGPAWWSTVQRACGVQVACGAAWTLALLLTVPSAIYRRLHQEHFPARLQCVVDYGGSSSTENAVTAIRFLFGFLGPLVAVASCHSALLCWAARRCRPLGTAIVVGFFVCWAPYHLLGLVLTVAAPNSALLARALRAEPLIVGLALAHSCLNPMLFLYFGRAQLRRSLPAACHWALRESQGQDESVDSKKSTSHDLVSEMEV

[26] = molecular target: C-C chemokine receptor type 2 (Homo sapiens) (UniProt P41597); experiment: RLU of CCR2 at 1.0 µM in the […] PRESTO-Tango GPCRome screen
[27] = molecular target: D(1A) dopamine receptor (Homo sapiens) (UniProt P21728); experiment: RLU of DRD1 at 1.0 µM in the […] PRESTO-Tango GPCRome screen
[28] = molecular target: Parathyroid hormone/parathyroid hormone-related peptide receptor (Homo sapiens) (UniProt Q03431); experiment: RLU of PTH1R at 1.0 µM in the […] PRESTO-Tango GPCRome screen
[29] = molecular target: Neuropeptide Y receptor type 2 (Homo sapiens) (UniProt P49146); experiment: RLU of NPY2R at 1.0 µM in the […] PRESTO-Tango GPCRome screen
[30] = molecular target: C-X-C chemokine receptor type 2 (Homo sapiens) (UniProt P25025); experiment: RLU of CXCR2 at 1.0 µM in the […] PRESTO-Tango GPCRome screen
C-X-C chemokine receptor type 2 (Homo sapiens), sequence (P25025 whole entry): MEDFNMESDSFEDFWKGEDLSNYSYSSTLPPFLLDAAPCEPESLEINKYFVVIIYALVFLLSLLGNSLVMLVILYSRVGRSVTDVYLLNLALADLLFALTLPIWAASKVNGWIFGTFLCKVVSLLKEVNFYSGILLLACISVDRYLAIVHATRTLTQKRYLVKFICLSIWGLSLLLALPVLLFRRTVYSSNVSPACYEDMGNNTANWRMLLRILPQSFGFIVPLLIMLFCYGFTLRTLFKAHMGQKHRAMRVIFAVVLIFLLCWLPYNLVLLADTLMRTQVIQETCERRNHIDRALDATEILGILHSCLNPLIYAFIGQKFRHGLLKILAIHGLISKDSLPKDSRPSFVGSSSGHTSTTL

[31] = molecular target: Metabotropic glutamate receptor 8 (Homo sapiens) (UniProt O00222); experiment: RLU of GRM8 at 1.0 µM in the Aequorin PRESTO-Tango GPCRome screen
[32] = molecular target: 5-hydroxytryptamine receptor 6 (Homo sapiens) (UniProt P50406); experiment: RLU of HTR6 at 1.0 µM in the […] PRESTO-Tango GPCRome screen
[33] = molecular target: Mas-related G-protein coupled receptor member X3 (Homo sapiens) (UniProt Q96LB0); experiment: RLU of MRGPRX3 at 1.0 µM in the […] PRESTO-Tango GPCRome screen
[34] = molecular target: Gonadotropin-releasing hormone receptor (Homo sapiens) (UniProt P30968); experiment: RLU of GNRHR at 1.0 µM in the […] PRESTO-Tango GPCRome screen
Gonadotropin-releasing hormone receptor (Homo sapiens), sequence (P30968 whole entry): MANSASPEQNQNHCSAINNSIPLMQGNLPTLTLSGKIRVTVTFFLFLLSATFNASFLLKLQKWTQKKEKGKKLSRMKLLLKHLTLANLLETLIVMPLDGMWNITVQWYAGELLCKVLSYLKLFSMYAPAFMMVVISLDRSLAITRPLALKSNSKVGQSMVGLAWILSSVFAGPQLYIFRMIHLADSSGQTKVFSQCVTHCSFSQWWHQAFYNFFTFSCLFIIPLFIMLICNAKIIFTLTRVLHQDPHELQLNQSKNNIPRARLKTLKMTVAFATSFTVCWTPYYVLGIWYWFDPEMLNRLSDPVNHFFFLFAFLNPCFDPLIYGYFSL

[35] = molecular target: G-protein coupled receptor 12 (Homo sapiens) (UniProt P47775); experiment: RLU of GPR12 at 1.0 µM in the […] PRESTO-Tango GPCRome screen
G-protein coupled receptor 12 (Homo sapiens), sequence (P47775 whole entry): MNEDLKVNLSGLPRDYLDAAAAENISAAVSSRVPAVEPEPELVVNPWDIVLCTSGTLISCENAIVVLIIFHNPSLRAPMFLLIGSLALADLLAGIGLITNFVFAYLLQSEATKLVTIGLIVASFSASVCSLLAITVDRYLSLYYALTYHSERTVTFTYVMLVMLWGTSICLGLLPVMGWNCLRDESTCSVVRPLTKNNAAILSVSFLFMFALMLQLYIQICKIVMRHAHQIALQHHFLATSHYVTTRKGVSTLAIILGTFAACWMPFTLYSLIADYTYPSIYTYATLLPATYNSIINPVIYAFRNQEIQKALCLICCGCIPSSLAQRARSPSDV

Urotensin-2 receptor (Homo sapiens), sequence (Q9UKP6 whole entry): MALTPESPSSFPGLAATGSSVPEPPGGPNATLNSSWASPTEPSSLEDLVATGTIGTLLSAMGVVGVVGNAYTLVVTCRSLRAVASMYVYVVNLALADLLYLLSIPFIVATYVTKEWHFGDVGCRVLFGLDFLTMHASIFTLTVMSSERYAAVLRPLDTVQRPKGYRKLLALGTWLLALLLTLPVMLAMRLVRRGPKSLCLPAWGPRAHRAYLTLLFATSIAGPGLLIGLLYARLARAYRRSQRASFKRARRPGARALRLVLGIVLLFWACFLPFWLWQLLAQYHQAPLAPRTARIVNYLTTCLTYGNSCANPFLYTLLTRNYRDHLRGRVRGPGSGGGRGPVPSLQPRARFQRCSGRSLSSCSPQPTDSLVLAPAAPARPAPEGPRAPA

`CCCCC(=O)N1CC2(C1)CN(c1ccccc1-c1nnn[nH]1)C2` gave an RLU [1] of 9130, an RLU [2] of -160 and an RLU [3] of 6410. For the same compound, the RLU [4] was 1610, the RLU [5] was -1880 and the RLU [6] was 9360. The RLU [7] was -2840, the RLU [8] was -826 and the RLU [9] was -1200. The RLU [10] was 8020, the RLU [11] was 162 and the RLU [12] was -216. It also gave an RLU [13] of 338, an RLU [14] of -824 and an RLU [15] of 856. For the same compound, the RLU [16] was 1540, the RLU [17] was -6500 and the RLU [18] was 2860. The RLU [19] was 1160, the RLU [20] was 1630 and the RLU [21] was 1140. The RLU [22] was 897, the RLU [23] was -3470 and the RLU [24] was -895. It also gave an RLU [25] of 351, an RLU [26] of 2850 and an RLU [27] of 1630. For the same compound, the RLU [28] was 13.4, the RLU [29] was 559 and the RLU [30] was -473. It also gave an RLU [31] of -4060, an RLU [32] of 5340 and an RLU [33] of -916. The RLU [34] was -3090 and the RLU [35] was 109.
